{
  "source": "patent US9113629B2",
  "about": "“4-amino-6-(4-substituted-phenyl)-picolinates and 6-amino-2-(4-substituted-phenyl)-pyrimidine-4-carboxylates and their use as herbicides” (DOW AGROSCIENCES LLC, priority 2013, dated 2015)",
  "key": {"[1]": {"system": "Key Broadleaf Weed and Crop Species", "assay": "Post-emergent Test II herbicidal activity (Table 5)", "type": "in vivo", "conditions": "post-emergence, 336 h, post-emergent, 14 days after application; for pest or weed control at 70 g/ha: 70 g ai/ha; for pest or weed control at 140 g/ha: application rate 140 g ai/ha", "procedure,_shortened": "(§1)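 Scoring: visual, 0–100% injury at 14 d versus untreated. Treatment: overhead track spray, 187 L/ha, onto plants at the first–second true leaf stage. Growth: greenhouse, ~15 h light, 23–29 °C day, 22–28 °C night.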"}, "[2]": {"system": "Key Grass and Sedge Weeds as well as Grass Crops", "assay": "Post-emergent Test II herbicidal activity (Table 6)", "type": "in vivo", "conditions": "post-emergence, 336 h; for pest or weed control at 70 g/ha: application rate 70 g ai/ha; for pest or weed control at 140 g/ha: application rate 140 g ai/ha", "procedure,_shortened": "as §1"}, "[3]": {"conditions": "CYPES: yellow nutsedge (Cyperus esculentus), read-out: Visual Growth Reduction (%) 14 Days After Application, CYPES"}, "[4]": {"conditions": "DIGSA: crabgrass (Digitaria sanguinalis), read-out: Visual Growth Reduction (%) 14 Days After Application, DIGSA"}, "[5]": {"conditions": "ECHCG: barnyardgrass (Echinochloa crus-galli), read-out: Visual Growth Reduction (%) 14 Days After Application, ECHCG"}, "[6]": {"conditions": "ORYSA: rice (Oryza sativa), read-out: Visual Growth Reduction (%) 14 Days After Application, ORYSA"}, "[7]": {"conditions": "SETFA: giant foxtail (Setaria faberi), read-out: Visual Growth Reduction (%) 14 Days After Application, SETFA"}, "[8]": {"conditions": "SORVU: grain sorghum (Sorghum vulgare), read-out: Visual Growth Reduction (%) 14 Days After Application, SORVU"}, "[9]": {"conditions": "TRZSS (wheat, Triticum aestivum), read-out: Visual Growth Reduction (%) 14 Days After Application, TRZSS"}, "[10]": {"conditions": "ZEAMX: maize, corn (Zea mays), read-out: Visual Growth Reduction (%) 14 Days After Application, ZEAMX"}},
  "note": "Like-named read-outs stand apart in the source and are kept apart here.",
  "data": [
    {"smiles": "COC(=O)c1nc(-c2cc(F)c(C)cc2F)cc(N)c1Cl", "note": "[Compound 179]", "values": [
      {"measurement": "pest or weed control at 70 g/ha", "setting": "[1]; ABUTH: velvetleaf (Abutilon theophrasti), read-out: Visual Growth Reduction (%) 14 Days After Application ABUTH", "result": "95 to 100", "unit": "%"},
      {"measurement": "pest or weed control at 140 g/ha", "setting": "[1]; ABUTH: velvetleaf (Abutilon theophrasti), read-out: Visual Growth Reduction (%) 14 Days After Application, ABUTH", "result": "95 to 100", "unit": "%"},
      {"measurement": "pest or weed control at 70 g/ha", "setting": "[1]; AMARE: redroot pigweed (Amaranthus retroflexus), read-out: Visual Growth Reduction (%) 14 Days After Application AMARE", "result": "95 to 100", "unit": "%"},
      {"measurement": "pest or weed control at 140 g/ha", "setting": "[1]; AMARE: redroot pigweed (Amaranthus retroflexus), read-out: Visual Growth Reduction (%) 14 Days After Application, AMARE", "result": "95 to 100", "unit": "%"},
      {"measurement": "pest or weed control at 70 g/ha", "setting": "[1]; BRSNN: oilseed-rape, canola (Brassica napus), read-out: Visual Growth Reduction (%) 14 Days After Application BRSNN", "result": "30 to 44", "unit": "%"},
      {"measurement": "pest or weed control at 140 g/ha", "setting": "[1]; BRSNN: oilseed-rape, canola (Brassica napus), read-out: Visual Growth Reduction (%) 14 Days After Application, BRSNN", "result": "45 to 59", "unit": "%"},
      {"measurement": "pest or weed control at 70 g/ha", "setting": "[1]; CHEAL: lambsquarters (Chenopodium album), read-out: Visual Growth Reduction (%) 14 Days After Application CHEAL", "result": "95 to 100", "unit": "%"},
      {"measurement": "pest or weed control at 140 g/ha", "setting": "[1]; CHEAL: lambsquarters (Chenopodium album), read-out: Visual Growth Reduction (%) 14 Days After Application, CHEAL", "result": "95 to 100", "unit": "%"},
      {"measurement": "pest or weed control at 70 g/ha", "setting": "[1]; EPHHL: wild poinsettia (Euphorbia heterophylla), read-out: Visual Growth Reduction (%) 14 Days After Application EPHHL", "result": "95 to 100", "unit": "%"},
      {"measurement": "pest or weed control at 140 g/ha", "setting": "[1]; EPHHL: wild poinsettia (Euphorbia heterophylla), read-out: Visual Growth Reduction (%) 14 Days After Application, EPHHL", "result": "95 to 100", "unit": "%"},
      {"measurement": "pest or weed control at 70 g/ha", "setting": "[1]; HELAN: sunflower (Helianthus annuus), read-out: Visual Growth Reduction (%) 14 Days After Application HELAN", "result": "85 to 94", "unit": "%"},
      {"measurement": "pest or weed control at 140 g/ha", "setting": "[1]; HELAN: sunflower (Helianthus annuus), read-out: Visual Growth Reduction (%) 14 Days After Application, HELAN", "result": "85 to 94", "unit": "%"},
      {"measurement": "pest or weed control at 70 g/ha", "setting": "[1]; VIOTR: wild pansy (Viola tricolor), read-out: Visual Growth Reduction (%) 14 Days After Application VIOTR", "result": "0 to 29", "unit": "%"},
      {"measurement": "pest or weed control at 140 g/ha", "setting": "[1]; VIOTR: wild pansy (Viola tricolor), read-out: Visual Growth Reduction (%) 14 Days After Application, VIOTR", "result": "0 to 29", "unit": "%"},
      {"measurement": "pest or weed control at 70 g/ha", "setting": "[2]; [3]", "result": "0 to 29", "unit": "%"},
      {"measurement": "pest or weed control at 140 g/ha", "setting": "[2]; [3]", "result": "0 to 29", "unit": "%"},
      {"measurement": "pest or weed control at 70 g/ha", "setting": "[2]; [4]", "result": "0 to 29", "unit": "%"},
      {"measurement": "pest or weed control at 140 g/ha", "setting": "[2]; [4]", "result": "0 to 29", "unit": "%"},
      {"measurement": "pest or weed control at 70 g/ha", "setting": "[2]; [5]", "result": "0 to 29", "unit": "%"},
      {"measurement": "pest or weed control at 140 g/ha", "setting": "[2]; [5]", "result": "30 to 44", "unit": "%"},
      {"measurement": "pest or weed control at 70 g/ha", "setting": "[2]; [6]", "result": "0 to 29", "unit": "%"},
      {"measurement": "pest or weed control at 140 g/ha", "setting": "[2]; [6]", "result": "0 to 29", "unit": "%"},
      {"measurement": "pest or weed control at 70 g/ha", "setting": "[2]; [7]", "result": "0 to 29", "unit": "%"},
      {"measurement": "pest or weed control at 140 g/ha", "setting": "[2]; [7]", "result": "0 to 29", "unit": "%"},
      {"measurement": "pest or weed control at 70 g/ha", "setting": "[2]; [8]", "result": "0 to 29", "unit": "%"},
      {"measurement": "pest or weed control at 140 g/ha", "setting": "[2]; [8]", "result": "45 to 59", "unit": "%"},
      {"measurement": "pest or weed control at 70 g/ha", "setting": "[2]; [9]", "result": "0 to 29", "unit": "%"},
      {"measurement": "pest or weed control at 140 g/ha", "setting": "[2]; [9]", "result": "0 to 29", "unit": "%"},
      {"measurement": "pest or weed control at 70 g/ha", "setting": "[2]; [10]", "result": "0 to 29", "unit": "%"},
      {"measurement": "pest or weed control at 140 g/ha", "setting": "[2]; [10]", "result": "0 to 29", "unit": "%"},
      {"measurement": "melting point", "result": "137.2 to 138.8", "unit": "°C"}
    ]}
  ]
}
